This note sets out measurements from ChEMBL document CHEMBL1201862, “PubChem BioAssay data set” (2004).

The target of assay [1] is T1, Sentrin-specific protease 8 (Homo sapiens, UniProt Q96LD8).
T1 sequence (Q96LD8 whole entry): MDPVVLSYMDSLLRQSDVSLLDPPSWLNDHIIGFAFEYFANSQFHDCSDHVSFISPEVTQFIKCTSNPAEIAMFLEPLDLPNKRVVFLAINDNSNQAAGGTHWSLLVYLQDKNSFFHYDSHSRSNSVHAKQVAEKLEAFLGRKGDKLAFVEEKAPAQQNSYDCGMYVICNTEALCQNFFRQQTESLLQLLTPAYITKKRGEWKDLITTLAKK
The format is functional.

The target of assay [2] is T1, Sentrin-specific protease 8. The format is functional. This is another data set of the same source.
The target in assay [3] is Glucose-6-phosphate 1-dehydrogenase (Homo sapiens, UniProt P11413). The assay can be described thus: inhibition of Homo sapiens G6PD, dose series – biochemical, fluorescence, selectivity assay for P. falciparum G6PD inhibitor project, dose response (AID 504792). The format is functional.
Glucose-6-phosphate 1-dehydrogenase, sequence (P11413 whole entry): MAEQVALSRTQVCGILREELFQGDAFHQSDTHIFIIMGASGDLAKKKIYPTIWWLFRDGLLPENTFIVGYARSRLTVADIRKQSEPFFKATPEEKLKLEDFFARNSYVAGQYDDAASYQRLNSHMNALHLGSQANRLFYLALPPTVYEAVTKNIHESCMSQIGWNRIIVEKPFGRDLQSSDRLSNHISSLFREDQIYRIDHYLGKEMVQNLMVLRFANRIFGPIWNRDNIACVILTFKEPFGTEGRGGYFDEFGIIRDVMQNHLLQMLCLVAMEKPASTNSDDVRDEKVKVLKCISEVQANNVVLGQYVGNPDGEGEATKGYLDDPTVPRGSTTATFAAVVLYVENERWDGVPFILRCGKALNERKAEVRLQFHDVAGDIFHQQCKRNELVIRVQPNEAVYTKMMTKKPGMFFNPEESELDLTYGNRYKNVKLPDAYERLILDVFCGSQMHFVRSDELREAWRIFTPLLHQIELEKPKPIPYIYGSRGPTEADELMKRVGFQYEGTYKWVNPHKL
The test system of assay [4] is HEK293. The assay can be described thus: cells. To be noted: Homo sapiens.
For assay [5], the system named is HEK293. The assay can be described thus: NOD2 signaling inhibitors in MDP-stimulated cells, cell-based, uHTS, luminescence (AID 2001). The format is functional. To be noted: Homo sapiens.
Assay [6] deals with HEK293. The assay can be described thus: cells. To be noted: Homo sapiens. Type of assay: functional, cell-based.
Assay [7] has as its target T2, Nucleotide-binding oligomerization domain-containing protein 1 (Homo sapiens, UniProt Q9Y239).
T2 sequence (Q9Y239 whole entry): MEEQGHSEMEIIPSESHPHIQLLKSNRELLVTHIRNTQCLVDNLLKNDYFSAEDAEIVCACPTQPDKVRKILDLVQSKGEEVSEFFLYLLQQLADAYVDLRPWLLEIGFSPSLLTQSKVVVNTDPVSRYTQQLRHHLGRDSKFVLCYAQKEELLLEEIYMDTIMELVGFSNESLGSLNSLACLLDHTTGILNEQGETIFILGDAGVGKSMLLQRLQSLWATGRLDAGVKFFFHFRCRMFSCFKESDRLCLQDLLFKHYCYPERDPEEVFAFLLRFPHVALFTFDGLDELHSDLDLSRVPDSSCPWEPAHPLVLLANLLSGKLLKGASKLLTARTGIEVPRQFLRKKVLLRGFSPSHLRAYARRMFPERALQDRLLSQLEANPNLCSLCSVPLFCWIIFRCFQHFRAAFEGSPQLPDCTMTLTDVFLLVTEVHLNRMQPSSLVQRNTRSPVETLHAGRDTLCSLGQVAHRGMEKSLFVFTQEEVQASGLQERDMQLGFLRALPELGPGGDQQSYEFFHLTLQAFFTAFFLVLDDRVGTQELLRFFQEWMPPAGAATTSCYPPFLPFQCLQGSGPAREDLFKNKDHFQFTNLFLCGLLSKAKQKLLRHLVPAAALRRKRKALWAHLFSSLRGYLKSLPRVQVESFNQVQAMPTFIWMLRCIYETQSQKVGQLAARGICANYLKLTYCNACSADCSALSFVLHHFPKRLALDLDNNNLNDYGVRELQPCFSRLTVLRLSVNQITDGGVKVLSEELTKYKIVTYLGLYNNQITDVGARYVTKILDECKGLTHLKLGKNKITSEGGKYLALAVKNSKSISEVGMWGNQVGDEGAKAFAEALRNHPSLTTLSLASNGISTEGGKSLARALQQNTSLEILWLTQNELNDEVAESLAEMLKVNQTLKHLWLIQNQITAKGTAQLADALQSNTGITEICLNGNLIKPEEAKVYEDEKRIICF
In words: blockers of NOD1 pathway activity – revised, SAR follow-up (AID 2333). The format is functional.

Assay [8] deals with HEK293. The assay can be described thus: cells. To be noted: Homo sapiens. Type of assay: functional, cell-based. The source holds these as a separate data set.
A further assay addresses Tumor necrosis factor (Homo sapiens, UniProt P01375). The assay can be described thus: analog potency on TNFa NF-kB signaling – cell-based, revised, SAR follow-up (AID 2337). Type of assay: functional.
Assay [9] deals with HEK293. The assay can be described thus: inhibition of NOD1-driven NF-kB reporter – cell-based, luminescence, uHTS, primary screen (AID 1578). The format is functional. The conditions noted are these: Homo sapiens.
Another assay deals with Vero. In words: cells. The format is functional. The conditions noted are these: Chlorocebus sabaeus.
The target of assay [10] is T3, Microphthalmia-associated transcription factor (Homo sapiens, UniProt O75030).
T3 sequence (O75030 whole entry): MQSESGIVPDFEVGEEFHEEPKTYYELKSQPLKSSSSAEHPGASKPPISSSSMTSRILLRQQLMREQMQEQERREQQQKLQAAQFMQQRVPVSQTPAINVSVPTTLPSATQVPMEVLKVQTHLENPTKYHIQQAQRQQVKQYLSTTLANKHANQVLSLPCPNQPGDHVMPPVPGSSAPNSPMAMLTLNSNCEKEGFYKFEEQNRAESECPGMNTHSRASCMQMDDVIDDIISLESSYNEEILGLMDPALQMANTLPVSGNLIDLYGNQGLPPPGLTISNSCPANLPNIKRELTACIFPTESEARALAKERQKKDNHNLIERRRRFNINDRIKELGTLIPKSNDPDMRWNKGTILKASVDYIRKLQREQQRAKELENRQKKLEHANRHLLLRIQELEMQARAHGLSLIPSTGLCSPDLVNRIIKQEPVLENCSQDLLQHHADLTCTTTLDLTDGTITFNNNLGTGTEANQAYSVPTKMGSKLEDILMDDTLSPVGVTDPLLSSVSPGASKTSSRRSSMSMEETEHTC
The assay can be described thus: reducers of TRPM1 reporter luminescence, concentration series – cell-based, SK-MEL-5, cherry-picked, set 3, MITF inhibitor project, dose response (AID 493073).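 Also: SK-MEL-5 melanoma cells with luciferase driven by the MITF target TRPM1 promoter.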 Type of assay: functional.

Assay [11] has as its target Heat shock protein HSP 90-alpha (Homo sapiens, UniProt P07900). The format is functional, organism-based.
Assay [12] in a line: activation of miR-122 Renilla sensor silencing – cell-based, Huh7 psiCHECK-miR122, Renilla luciferase, cherry-picked, dose response (AID 651956).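 Also: huh7 hepatoma cells stably carrying a psiCHECK-2 miR-122 sensor plasmid; renilla luciferase signal reporting endogenous miR-122 activity after 48 h compound exposure.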 The format is functional.
Assay [13] concerns the target T4, Heat shock factor protein 1 (Mus musculus, UniProt P38532).
T4 sequence (P38532 whole entry): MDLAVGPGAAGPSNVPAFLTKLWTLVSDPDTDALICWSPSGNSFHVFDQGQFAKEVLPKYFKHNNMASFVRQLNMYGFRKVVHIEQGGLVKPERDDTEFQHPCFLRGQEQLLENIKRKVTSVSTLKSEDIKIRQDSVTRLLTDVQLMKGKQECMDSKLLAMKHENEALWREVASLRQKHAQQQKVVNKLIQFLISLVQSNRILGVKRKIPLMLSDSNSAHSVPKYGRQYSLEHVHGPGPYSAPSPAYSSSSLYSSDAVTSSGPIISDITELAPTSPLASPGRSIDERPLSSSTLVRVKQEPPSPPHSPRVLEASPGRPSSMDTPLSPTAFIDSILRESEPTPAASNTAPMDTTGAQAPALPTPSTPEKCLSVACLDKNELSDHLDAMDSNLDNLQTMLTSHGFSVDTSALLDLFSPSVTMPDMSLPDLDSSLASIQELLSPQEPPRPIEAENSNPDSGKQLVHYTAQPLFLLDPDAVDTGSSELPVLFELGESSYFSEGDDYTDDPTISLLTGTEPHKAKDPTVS
In words: decrease of HSF1-responsive luciferase luminescence – cell-based, NIH3T3, dose retest, confirmation (AID 2382).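 Also: NIH3T3 fibroblasts with HSF1-driven luciferase reporter stressed by proteasome inhibitor MG132; luminescence from HSF1-driven luciferase expression after 8 hours of MG132 stress.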 The format is functional.

The nature of assay [14]: Trypanosoma cruzi growth suppression in host cells – NIH3T3 host cells, beta-gal luminescence, confirmation (AID 2044).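 Also: intracellular parasites grown in NIH/3T3 mouse fibroblasts as host cells; luminescent beta-galactosidase reporter signal from transgenic T. cruzi replicating inside host cells; inhibitors lower the luminescence signal.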 The format is functional, cell-based.
The nature of assay [15]: NIH3T3 cell viability loss – ATP luminescence, mouse fibroblasts, counter-screen, dose response (AID 2010).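 Also: cells exposed to compound for about 90 hours before reading.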 The format is functional, cell-based. (In general: A counterscreen serves to expose hits that act by an unwanted route or on another target.)
A further assay in a line: cells. Type of assay: functional.

Calls of active or inactive are those of the source.

Tumor necrosis factor, sequence (P01375 whole entry): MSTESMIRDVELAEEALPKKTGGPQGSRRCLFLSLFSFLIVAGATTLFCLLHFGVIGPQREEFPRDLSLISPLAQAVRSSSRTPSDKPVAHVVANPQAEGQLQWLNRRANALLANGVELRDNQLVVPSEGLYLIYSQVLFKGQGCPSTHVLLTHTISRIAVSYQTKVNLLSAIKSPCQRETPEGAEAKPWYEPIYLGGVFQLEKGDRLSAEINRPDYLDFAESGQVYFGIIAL

For `Cc1ccc(C)c(N/C([S-])=C(/C(=O)c2ccc(Cl)s2)[n+]2ccccc2)c1`, the IC50 in [1] was 5.82 µM (active); in assay [2] it was 9.94 µM (active).
For `COC(=O)CCCC1=CC2=CC(=O)C(C)(OC(=O)c3cccs3)C(=O)C2=CN1CCCCO` (stereo not drawn) the same measures were 5.99 µM (active) and 7.79 µM (active).
In the case of `CCn1c(=O)n(CC)c2cc(N3CCCC3)c(NC(=O)c3cccc(C)c3)cc21`, the IC50 in assay [3] was > 80 µM (inactive).
As for `COc1ccc(CNS(=O)(=O)c2ccc3c(c2)CC(C)N3C(=O)C2CC2)cc1` (stereo not drawn), the IC50 was > 20 µM (inactive) with HEK293 [4]; 12.5 µM (inactive) in the assay on HEK293 [5]; 14.8 µM (active) with HEK293 [6]; 13.1 µM (active) in [7]; 7.96 µM (active) in the assay on HEK293 [8]; > 20 µM (inactive) on Tumor necrosis factor. For the same molecule, in the assay on HEK293 [9], the EC50 is 3.88 µM (active).
Turning to `O=[N+]([O-])/C=C\c1ccc(N2CCCC2)c(F)c1`, the CC50 in the assay on Vero was 18.6 µM (active). For the same molecule, the AC50 in [10] is 13.4 µM (active); in assay [11] it was 8.22 µM (active).
Consider `COc1ccccc1CN1CCC(CNS(=O)(=O)c2cc(-c3cc(C)no3)ccc2OC)CC1`, for which the CC50 in the assay with Vero is > 25 µM (active).
With `CCOc1ccccc1NC(=O)CCCc1nc(O)c2ccccc2n1`, the IC50 in assay [3] is 71.7 µM (inactive).
As to `O=C(CNCCC1=CCCCC1)Nc1ccccc1N1CCCCCC1`, the AC50 in [12] was 2.54 µM (active).
On to `Cc1ccc2c(c1)C1CN(C)CCC1N2C(=O)Nc1cccc(C(F)(F)F)c1` (stereo not drawn), for which, in the assay on Vero, the CC50 was > 25 µM (active). Further, the EC50 in [13] is listed as > 195 µM (not active).
For the molecule `COC(=O)c1c(NC(=O)C=Cc2cccs2)sc2c1CCC(C)C2` (stereo not drawn), the IC50 is > 20 µM (inactive) in the assay with HEK293 [4], 9.46 µM (active) in assay [7] and 5.68 µM (active) on Tumor necrosis factor.
With `CCNc1cc2c(cc1O)CCC1C2CCC2(C)C(O)CCC12` (stereo not drawn), the IC50 in assay [3] was > 80 µM (inactive).
In the case of `C/C=C/c1ccc2c(c1)O[C@H](CN(C)C(=O)Cc1cccnc1)[C@H](C)CN([C@H](C)CO)S2(=O)=O`, the AC50 in assay [12] is 10.7 µM (active).
Still for that read-out and setting: with `CNC(=O)C[C@@H]1CC[C@@H]2[C@@H](COc3ccc(NC(=O)c4cccc(OC)c4)cc3C(=O)N2C)O1` the figure was 67.7 µM (active).
With `O=C(Nc1ccccc1N1CCCC1)c1ccc([N+](=O)[O-])o1`, the values for the IC50 in [1] and in [2] were 66.9 µM (inactive) and 31.3 µM (active), respectively. Besides, the EC50 in [14] was 0.105 µM (active); in assay [15] it was 13.5 µM (active).
Regarding `CCOc1ccc2ccccc2c1/C=N/NC(=O)c1ccncc1`, the IC50 is 27.1 µM (inactive) in [3] and 0.21 µM (active) in the assay “cells”.
With `COC1=CC(=O)C=C(OC)C1(O)CC(C)=O`, the IC50 in assay [3] is 54.3 µM (inactive).

The term IC50 denotes the concentration that inhibits the measured activity by half. What is called EC50 is the concentration needed to bring the measured effect to its halfway point. For orientation: CC50 means the concentration that lowers cell viability or growth by half. As a reminder, the AC50 is the midpoint of the concentration-response curve, whichever way the signal moves.
